Experimental data published in patent US20250171438A1 (Agios Pharmaceuticals, Inc., priority 2022, published 2025).

Each compound was assayed against T1, human PAH with the R408W mutation (Homo sapiens, UniProt P00439, R408W) (assay: Cell Based Phenylalanine Flux Assay). Settings: A375 cells expressing human R408W PAH; 24 hrs compound incubation; 13C-Tyrosine by LC-MS; average where tested multiple times; read-out: AC50.
T1 construct: expressed in transfected cells
T1 sequence (P00439 1-452 R408W): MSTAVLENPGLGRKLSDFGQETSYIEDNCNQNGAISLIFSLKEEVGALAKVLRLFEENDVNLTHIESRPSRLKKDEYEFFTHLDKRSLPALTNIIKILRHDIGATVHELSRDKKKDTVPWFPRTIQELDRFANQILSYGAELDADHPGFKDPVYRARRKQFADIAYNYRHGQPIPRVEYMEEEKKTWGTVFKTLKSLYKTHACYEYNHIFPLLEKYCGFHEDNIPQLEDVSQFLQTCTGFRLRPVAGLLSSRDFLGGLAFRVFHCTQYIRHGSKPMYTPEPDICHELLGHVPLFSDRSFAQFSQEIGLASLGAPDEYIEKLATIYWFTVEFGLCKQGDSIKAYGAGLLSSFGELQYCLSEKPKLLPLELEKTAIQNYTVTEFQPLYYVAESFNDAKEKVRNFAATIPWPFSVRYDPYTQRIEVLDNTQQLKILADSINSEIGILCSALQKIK

Compared with `O=C(CCc1ccc(F)cc1)N1CCc2[nH]cnc2[C@H]1c1nc2ccccc2s1` [Example 1005], `O=C(CCc1ccc(F)cc1)N1CCc2[nH]cnc2[C@@H]1c1nc2ccccc2s1` [Example 1006, (R)-1-(4-(benzo[d]thiazol-2-yl)-6,7-dihydro-1H-imidazo[4,5-c]pyridin-5(4H)-yl)-3-(4-fluorophenyl)propan-1-one] is higher in AC50: 0.5 to 1 µM for the first, > 5 µM for the second.

First: O=C(c1nccs1)N1CCc2[nH]cnc2[C@H]1c1nc2ccccc2s1 [Example 1007]
Second: O=C(c1nccs1)N1CCc2[nH]cnc2[C@@H]1c1nc2ccccc2s1 [Example 1008, (R)-(4-(benzo[d]thiazol-2-yl)-6,7-dihydro-1H-imidazo[4,5-c]pyridin-5(4H)-yl)(thiazol-2-yl)methanone]
The AC50 of the first is lower: < 0.5 µM for the first, > 5 µM for the second.

First: O=C(c1cnn2ccccc12)N1CCc2[nH]cnc2[C@H]1c1nc2ccccc2s1 [Example 1009]
Second: O=C(c1cnn2ccccc12)N1CCc2[nH]cnc2[C@@H]1c1nc2ccccc2s1 [Example 1010, (R)-(4-(benzo[d]thiazol-2-yl)-6,7-dihydro-1H-imidazo[4,5-c]pyridin-5(4H)-yl)(pyrazolo[1,5-a]pyridin-3-yl)methanone]
The AC50 of the first is lower: < 0.5 µM for the first, 1 to 5 µM for the second.

First: COc1cccc(/C=C/C(=O)N2CCc3[nH]cnc3[C@H]2c2nc3ccccc3s2)c1 [Example 1011]
Second: COc1cccc(/C=C/C(=O)N2CCc3[nH]cnc3[C@@H]2c2nc3ccccc3s2)c1 [Example 1012, (R,E)-1-(4-(benzo[d]thiazol-2-yl)-6,7-dihydro-1H-imidazo[4,5-c]pyridin-5(4H)-yl)-3-(3-methoxyphenyl)prop-2-en-1-one]
The AC50 of the first is lower: 0.5 to 1 µM for the first, > 5 µM for the second.

First: COc1cccc(CCCC(=O)N2CCc3[nH]cnc3[C@H]2c2nc3ccccc3s2)c1 [Example 1013]
Second: COc1cccc(CCCC(=O)N2CCc3[nH]cnc3[C@@H]2c2nc3ccccc3s2)c1 [Example 1014, (R)-1-(4-(benzo[d]thiazol-2-yl)-6,7-dihydro-1H-imidazo[4,5-c]pyridin-5(4H)-yl)-4-(3-methoxyphenyl)butan-1-one]
The AC50 of the first is lower: 0.5 to 1 µM for the first, > 5 µM for the second.

First: O=C(CCC1CCCC1)N1CCc2[nH]cnc2[C@H]1c1nc2ccccc2s1 [Example 1015]
Second: O=C(CCC1CCCC1)N1CCc2[nH]cnc2[C@@H]1c1nc2ccccc2s1 [Example 1016, (R)-1-(4-(benzo[d]thiazol-2-yl)-6,7-dihydro-1H-imidazo[4,5-c]pyridin-5(4H)-yl)-3-cyclopentylpropan-1-one]
The AC50 of the first is lower: 0.5 to 1 µM for the first, 1 to 5 µM for the second.

First: Cc1nnc(CCC(=O)N2CCc3[nH]cnc3[C@H]2c2nc3ccccc3s2)s1 [Example 1019]
Second: Cc1nnc(CCC(=O)N2CCc3[nH]cnc3[C@@H]2c2nc3ccccc3s2)s1 [Example 1020, (R)-1-(4-(benzo[d]thiazol-2-yl)-6,7-dihydro-1H-imidazo[4,5-c]pyridin-5(4H)-yl)-3-(5-methyl-1,3,4-thiadiazol-2-yl)propan-1-one]
The AC50 of the first is lower: 0.5 to 1 µM for the first, > 5 µM for the second.

First: O=C(CCC1CC1)N1CCc2[nH]cnc2[C@H]1c1nc2ccccc2s1 [Example 1021]
Second: O=C(CCC1CC1)N1CCc2[nH]cnc2[C@@H]1c1nc2ccccc2s1 [Example 1022, (R)-1-(4-(benzo[d]thiazol-2-yl)-6,7-dihydro-1H-imidazo[4,5-c]pyridin-5(4H)-yl)-3-cyclopropylpropan-1-one]
The AC50 of the first is lower: < 0.5 µM for the first, 1 to 5 µM for the second.

First: O=C(CCc1nc(Cl)cs1)N1CCc2[nH]cnc2[C@H]1c1nc2ccccc2s1 [Example 1023]
Second: O=C(CCc1nc(Cl)cs1)N1CCc2[nH]cnc2[C@@H]1c1nc2ccccc2s1 [Example 1024, (R)-1-(4-(benzo[d]thiazol-2-yl)-6,7-dihydro-1H-imidazo[4,5-c]pyridin-5(4H)-yl)-3-(4-chlorothiazol-2-yl)propan-1-one]
The AC50 of the first is lower: 0.5 to 1 µM for the first, > 5 µM for the second.

`O=C(CCc1ncc(Cl)s1)N1CCc2[nH]cnc2[C@H]1c1nc2ccccc2s1` [Example 1025] and `O=C(CCc1ncc(Cl)s1)N1CCc2[nH]cnc2[C@@H]1c1nc2ccccc2s1` [Example 1026, (R)-1-(4-(benzo[d]thiazol-2-yl)-6,7-dihydro-1H-imidazo[4,5-c]pyridin-5(4H)-yl)-3-(5-chlorothiazol-2-yl)propan-1-one] fall in the same range of AC50: 1 to 5 µM for the first, 1 to 5 µM for the second.

Compared with `O=C(c1ncn2ccccc12)N1CCc2[nH]cnc2[C@H]1c1nc2ccccc2s1` [Example 1027], `O=C(c1ncn2ccccc12)N1CCc2[nH]cnc2[C@@H]1c1nc2ccccc2s1` [Example 1028, (R)-(4-(benzo[d]thiazol-2-yl)-6,7-dihydro-1H-imidazo[4,5-c]pyridin-5(4H)-yl)(imidazo[1,5-a]pyridin-1-yl)methanone] is higher in AC50: 0.5 to 1 µM for the first, > 5 µM for the second.

Compared with `O=C(CCc1nccs1)N1CCc2[nH]cnc2[C@H]1c1nc2ccc(F)cc2s1` [Example 1029, (S)-1-(4-(6-fluorobenzo[d]thiazol-2-yl)-6,7-dihydro-1H-imidazo[4,5-c]pyridin-5(4H)-yl)-3-(thiazol-2-yl)propan-1-one], `O=C(CCc1nccs1)N1CCc2[nH]cnc2[C@@H]1c1nc2ccc(F)cc2s1` [Example 1030, (R)-1-(4-(6-fluorobenzo[d]thiazol-2-yl)-6,7-dihydro-1H-imidazo[4,5-c]pyridin-5(4H)-yl)-3-(thiazol-2-yl)propan-1-one] is higher in AC50: 0.5 to 1 µM for the first, > 5 µM for the second.

Compared with `Cc1cnc(CCC(=O)N2CCc3[nH]cnc3[C@H]2c2nc3ccccc3s2)s1` [Example 1031], `Cc1cnc(CCC(=O)N2CCc3[nH]cnc3[C@@H]2c2nc3ccccc3s2)s1` [Example 1032, (R)-1-(4-(benzo[d]thiazol-2-yl)-6,7-dihydro-1H-imidazo[4,5-c]pyridin-5(4H)-yl)-3-(5-methylthiazol-2-yl)propan-1-one] is higher in AC50: 0.5 to 1 µM for the first, > 5 µM for the second.

Compared with `O=C(Cc1nc(C(F)(F)F)cs1)N1CCc2[nH]cnc2[C@H]1c1nc2ccccc2s1` [Example 1033], `O=C(Cc1nc(C(F)(F)F)cs1)N1CCc2[nH]cnc2[C@@H]1c1nc2ccccc2s1` [Example 1034, (R)-1-(4-(benzo[d]thiazol-2-yl)-6,7-dihydro-1H-imidazo[4,5-c]pyridin-5(4H)-yl)-2-(4-(trifluoromethyl)thiazol-2-yl)ethenone] is higher in AC50: 0.5 to 1 µM for the first, > 5 µM for the second.

First: O=C(CCc1nccs1)N1CCc2[nH]cnc2[C@H]1c1nc2cccc(F)c2s1 [Example 1035, (S)-1-(4-(7-fluorobenzo[d]thiazol-2-yl)-6,7-dihydro-1H-imidazo[4,5-c]pyridin-5(4H)-yl)-3-(thiazol-2-yl)propan-1-one]
Second: O=C(CCc1nccs1)N1CCc2[nH]cnc2[C@@H]1c1nc2cccc(F)c2s1 [Example 1036, (R)-1-(4-(7-fluorobenzo[d]thiazol-2-yl)-6,7-dihydro-1H-imidazo[4,5-c]pyridin-5(4H)-yl)-3-(thiazol-2-yl)propan-1-one]
The AC50 of the first is lower: 0.5 to 1 µM for the first, 1 to 5 µM for the second.

Compared with `O=C(Cc1nccs1)N1CCc2[nH]cnc2[C@H]1c1nc2ccccc2s1` [Example 1037], `O=C(Cc1nccs1)N1CCc2[nH]cnc2[C@@H]1c1nc2ccccc2s1` [Example 1038, (R)-1-(4-(benzo[d]thiazol-2-yl)-6,7-dihydro-1H-imidazo[4,5-c]pyridin-5(4H)-yl)-2-(thiazol-2-yl)ethenone] is higher in AC50: 0.5 to 1 µM for the first, > 5 µM for the second.

For `O=C(c1cnn2cc(F)ccc12)N1CCc2[nH]cnc2[C@H]1c1nc2ccccc2s1` [Example 1039], the AC50 was 0.5 to 1 µM.
